The assay is described as follows: Inhibition of 10 uM ADP-induced human gel filtered platelet aggregation with 0.1 mg/mL human fibrinogen.

For orientation: IC50 means the concentration that gives 50% inhibition. Low values mean higher potency, high ones lower potency.

For `O=C(O)CCN1Cc2ccc(C(=O)NCCC3CCNCC3)cc2C1=O` [3-[1-Oxo-6-(2-piperidin-4-yl-ethylcarbamoyl)-1,3-dihydro-isoindol-2-yl]-propionic acid], 10000 µM corresponded to half-maximal inhibition (IC50).
To `O=C(O)CCNC(=O)c1cccc(C(=O)NCC2CCNCC2)c1` [3-{3-[(Piperidin-4-ylmethyl)-carbamoyl]-benzoylamino}-propionic acid] belongs 330 µM; to `O=C(O)CCNC(=O)c1ccc2c(c1)C(=O)N(CCC1CCNCC1)C2` [3-{[3-Oxo-2-(2-piperidin-4-yl-ethyl)-2,3-dihydro-1H-isoindole-5-carbonyl]-amino}-propionic acid(L-709780)], 25 µM; to `O=C(O)CCNC(=O)c1ccc2c(c1)C(=O)C(CCC1CCNCC1)C2` (centres undefined) [3-{[3-Oxo-2-(2-piperidin-4-yl-ethyl)-indane-5-carbonyl]-amino}-propionic acid], 2300 µM.
